These results are taken from US20200046835A1, “Systems, Methods, and Compositions For Cross-Linking Treatments of an Eye” (Avedro, Inc., priority 2014, published 2020).

Series [1] deals with corneal collagen. Nature of the series: Papain digest fluorescence of pig corneal flaps (collagen cross-linking). The following applies: for fluorescence of the corneal samples after digestion with papain (excitation 360 nm), compared to controls not exposed to UV: phosphate buffer, UV 365 nm, 30 mW/cm^2, pulsed 1 s on:1 s off, 8 min, oxygen; for fluorescence (relative to untreated controls) recorded at 450 nm: FeSO4 0.5 mM added to 0.1% riboflavin. How it is done:
Corneal flaps were soaked in either distilled water or diluted H2O2 (1%) for 20 minutes. Flaps soaked in H2O2 were either rinsed twice with distilled water or removed from H2O2 and placed in 0.1% FeSO4 solution in distilled water for an additional 20 minute soak followed by a 2× rinse with distilled water. Flaps were dried in a vacuum until the weight change became less than 10% (Rotary vane vacuum pump RV3 A652-01-903, BOC Edwards, West Sussex, UK). Each flap was digested for 2.5 hours at 65° C. with 2.5 units/ml of papain (from Papaya latex, Sigma) in 1 ml of papain buffer [EBBS (pH 7.0-7.2), 2 mM L-cysteine and 2 mM EDTA]. Papain digests were centrifuged for 5 seconds at 2200×G (Mini centrifuge 05-090-100, Fisher Scientific), diluted 0.5 times with BBBS and fluorescence of the solutions was measured with excitation of λex=360 nm in a QM-40 Spectrofluorometer (Photon Technology Int., London, Ontario, Canada). The fluorescence of the papain buffer was taken into account by measuring fluorescence in the absence of tissue and subtracting this value from the fluorescence of the samples. […]
(§1) Pig eyes were shipped overnight on ice from an abattoir (SiouxPreme, Sioux City, Iowa), rinsed in saline. Eyes were cleaned and epithelium was removed. […] If specified, eyes were placed in a beaker with a light oxygen stream for 2 minutes in the incubation chamber prior to irradiation. Corneas were pan-corneally irradiated with a top hat beam (3% root mean square) for the chosen time (4 or 8 minutes) with 365-nm light source (UV LED NCSU033B[T]; Nichia Co., Tokushima, Japan) at the chosen irradiance (30 mW/cm^2, pulsed or non-pulsed) which was measured with a power sensor (model PD-300-UV; Ophir, Inc., Jerusalem, Israel) at the corneal surface. Corneal flaps (approximately 200 μm thick) were excised from the eyes with aid of Intralase femtosecond laser (Abbot Medical Optics, Santa Ana, Calif.). The average thickness of the corneal flaps was calculated as a difference between the measurements before and after the excision from the eyes with an ultrasonic Pachymeter (DGH Technology, Exton, Pa.). The flaps were placed into a biaxial extensometer (CellScale Biotester 5000, Waterloo, ON), using biorake attachments with 5 tines spanning a width of 3 mm. Each sample was stretched at a constant rate of 4 μm/s in saline at 37° C. until sample failure. The flaps were washed with distilled water 2 times, dried with filter paper, washed with dH2O two times, and then dried in a vacuum until the weight change became less than 10% (Rotary vane vacuum pump RV3 A652-01-903, BOC Edwards, West Sussex, UK). Each flap was digested for 2.5 hours at 65° C. with 2.5 units/ml of papain (from Papaya latex, Sigma) in 1 ml of papain buffer [BBBS (pH 7.0-7.2), 2 mM L-cysteine and 2 mM EDTA]. Papain digests were centrifuged for 5 seconds at 2200×G (Mini centrifuge 05-090-100, Fisher Scientific), diluted 0.5 times with 1× BBBS and fluorescence of the solutions was measured with excitation of λex=360 nm in a QM-40 Spectrofluorometer (Photon Technology Int., London, Ontario, Canada). The fluorescence of the papain buffer was taken into account by measuring fluorescence in the absence of tissue and subtracting this value from the fluorescence of the samples.
(§2) Oxygen was supplied continuously to the beaker during the time of exposure.
as §2

Series [2] relates to corneal collagen. Nature of the series: Biaxial extensometry (tensiometry) of pig corneal flaps. Particulars: for corneal stiffness (displacement-force diagrams): 1% solution in dH2O; for stiffening of corneal sample (displacement vs. force curves), compared to the unexposed controls: phosphate buffer, UV 365 nm, 30 mW/cm^2, pulsed 1 s on:1 s off, 8 min, oxygen. The procedure:
as §1, §2
Oxygen was supplied continuously to the beaker during the time of exposure. Corneal flaps were cut at approximately 200 μm.
Pig eyes were shipped overnight on ice from an abattoir (SiouxPreme, Sioux City, Iowa), rinsed in saline. Eyes were cleaned and epithelium was removed. […] Corneas were pan-corneally irradiated with a top hat beam (3% root mean square) for 4 minutes with 365-nm light source (UV LED NCSU033B[T]; Nichia Co., Tokushima, Japan) at irradiance 30 mW/cm^2, which was measured with a power sensor (model PD-300-UV; Ophir, Inc., Jerusalem, Israel) at the corneal surface. Corneal flaps (approximately 200 μm thick) were excised from the eyes with aid of Intralase femtosecond laser (Abbott Medical Optics, Santa Ana, Calif.). The average thickness of the corneal flaps was calculated as a difference between the measurements before and after the excision from the eyes with an ultrasonic Pachymeter (DGH Technology, Exton, Pa.). The flaps were then placed into a biaxial extensometer (CellScale Biotester 5000, Waterloo, ON), using biorake attachments with 5 tines spanning a width of 3 mm. Each sample was stretched at a constant rate of 4 μm/s in saline at 37° C. until sample failure. The flaps were washed with distilled water, dried in a vacuum until the weight change became less than 10% (Rotary vane vacuum pump RV3 A652-01-903, BOC Edwards, West Sussex, UK). Each flap was digested for 2.5 h at 65° C. with 2.5 units/ml of papain (from Papaya latex, Sigma) in 1 ml of papain buffer [EBBS (pH 7.0-7.2), 2 mM L-cysteine and 2 mM EDTA].

A further series has as its target human serum albumin (Homo sapiens, UniProt P02768). Particulars: irradiated in the presence of human serum albumin; cited from earlier work.
The subject of series [3] is corneal collagen. Kind of series: Papain digest fluorescence of pig corneal flaps (collagen cross-linking). Particulars: 0.1% in BBBS, de-oxygenated with argon, irradiated 4 min at 30 mW/cm^2 in CO2 atmosphere.
Where [4] appears, read: 0.4% in PBS, UVA 30 mW/cm2, 4 min CW or 8 min pulsed with O2.

Chain of human serum albumin (P02768 25-609): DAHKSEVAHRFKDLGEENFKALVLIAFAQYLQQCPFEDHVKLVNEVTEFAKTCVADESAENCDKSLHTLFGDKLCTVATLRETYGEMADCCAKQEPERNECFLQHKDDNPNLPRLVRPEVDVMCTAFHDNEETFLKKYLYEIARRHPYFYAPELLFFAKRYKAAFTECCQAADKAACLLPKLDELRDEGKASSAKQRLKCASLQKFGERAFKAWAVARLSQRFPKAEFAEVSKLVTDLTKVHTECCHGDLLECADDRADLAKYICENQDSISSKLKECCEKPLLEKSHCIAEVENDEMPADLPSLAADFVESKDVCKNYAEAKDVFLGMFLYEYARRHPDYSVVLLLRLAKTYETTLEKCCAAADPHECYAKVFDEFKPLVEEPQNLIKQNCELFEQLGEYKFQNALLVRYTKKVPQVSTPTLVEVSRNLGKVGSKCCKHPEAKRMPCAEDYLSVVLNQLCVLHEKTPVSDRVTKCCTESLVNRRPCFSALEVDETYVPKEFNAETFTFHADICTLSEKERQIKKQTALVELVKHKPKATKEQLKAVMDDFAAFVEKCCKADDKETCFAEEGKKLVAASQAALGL

For the compound `CC(=O)C(C)=O` [2,3-butanedione], the “fluorescence output (relative to the untreated controls, Fo) recorded at 450 nm” value in the series with corneal collagen [1] (1% solution in dH2O, with UV light 365 nm, 30 mW for 4 min) is “increase”. In the series with corneal collagen [1] (1% solution in dH2O, without UV light), the “fluorescence (relative to the untreated controls, Fo) recorded at 450 nm” value is given as “does not cross-link corneal flaps”. Besides, the “corneal stiffness (displacement-force diagrams)” value in the series on corneal collagen [2] (with UV light 365 nm, 30 mW for 4 min) was “increase”; in the series on corneal collagen [2] (without UV light) it was “does not cross-link corneal flaps”.
With `Nc1nc2ncc(CNc3ccc(C(=O)N[C@@H](CCC(=O)O)C(=O)O)cc3)nc2c(=O)[nH]1` [FA, Folic acid], in the series with corneal collagen [1], the “fluorescence of the corneal samples after digestion with papain (excitation 360 nm), compared to controls not exposed to UV” value was “increases”. Also, the “stiffening of corneal sample (displacement vs. force curves), compared to the unexposed controls” value with corneal collagen [2] is recorded as “significant stiffening”.
On to `Cc1cc2nc3c(=O)[nH]c(=O)nc-3n(C[C@H](O)[C@H](O)[C@H](O)CO)c2cc1C` [0.1% riboflavin, riboflavin], for which the “fluorescence of the corneal samples after digestion with papain (excitation 360 nm), compared to controls not exposed to UV” value in the series with corneal collagen [1] is “increases”. For the same compound, the “average force vs. displacement measured by tensiometry” value with corneal collagen [2] (CW UVA 30 mW/cm^2, 4 min, relative to controls) is “higher than the control group”. The “stiffening of corneal sample (displacement vs. force curves), compared to the unexposed controls” value in the series with corneal collagen [2] is “significant stiffening”.
For `O=S(=O)([O-])[O-].[Fe+2]` [FeSO4, Iron(II) Sulfate], the “fluorescence (relative to untreated controls) recorded at 450 nm” value in the series with corneal collagen [1] (CW UVA 30 mW/cm^2, 4 min) is “increase in fluorescence”; in the series with corneal collagen [1] (PW+O2, UVA 30 mW/cm^2, 8 min (1 s on:1 s off)), “increase in fluorescence”. Also, in the series on corneal collagen [2] (PW+O2, UVA 30 mW/cm^2, 8 min (1 s on:1 s off), versus 0.1% riboflavin), the “average force vs. displacement measured by tensiometry (biaxial tension)” value is recorded as “increase in biaxial tension”.
Take `Cc1c(C(=O)NCCO)[n+]([O-])c2ccccc2[n+]1[O-]` [Olaquindox, N-(2-hydroxyethyl)-3-methyl-2-quinoxalinecarboxamide 1,4-dioxide]: the “relative fluorescence recorded at 450 nm of the cross-linked flaps” value with corneal collagen [1] (setting [4]) is recorded as “acquired fluorescence at 450 nm”. Besides, the “stiffness by biaxial extensiometry of 200 μm thick corneal flaps” value in the series on corneal collagen [2] (setting [4]) is “became stiffer”. Besides, at human serum albumin, the “time to complete disappearance on irradiation” value is no more than 20 s.
With `OO` [H2O2, hydrogen peroxide], the “fluorescence counts of papain digested corneal flaps (cross-linking)” value in the series on corneal collagen [1] (1% H2O2 soak 20 min, with or without following 0.1% Iron(II) soak 20 min, no UV) is “not”.
On to `Cc1cc2nc(C(=O)[O-])c(=O)n(C[C@H](O)[C@H](O)[C@H](O)CO)c2cc1C.O.[Na+]` [sodium salt of 1,2-Dihydro-6,7-dimethyl-2-keto-1-D-ribityl-3-quinoxalinecarboxylic acid monohydrate], for which the “fluorescence of the digested corneas in the area 450 nm” value with corneal collagen [1] (0.1% in BBBS, no epithelium, 20 min soak, 30 mW/cm^2 for 4 min continuous UVA) is reported as “elevated fluorescence”. Also, in the series with corneal collagen [3], the “fluorescence of the digested corneal flaps (excitation 360 nm), compared with riboflavin” value is on record as “higher than the fluorescence of the corneal flaps cross-linked with riboflavin”.
